Measurements published in patent US4783401A (priority 1986, dated 1988).

Legend:
V79 cells [1] = test system: V79 cells
V79 cells [2] = test system: V79 cells; remark: listed apart in the source
rabbit red cells = conditions: in vivo
cells = conditions: cited from earlier work

## O=S(=O)(O)CCCNC1CCCCC1 [CAPS, 3-(Cyclohexylamino)-1-propanesulfonic acid]
Yac cells
  effect on cell doubling time compared to phosphate buffered saline: negligable effects on cell doubling time

## O=S(=O)(O)CC(O)CN(CCO)CCO (stereo not drawn) [DIPSO, 3-[N--N--bis(2-hydroxyethyl)amino]-2-hydroxypropane-sulfonic acid]
Yac cells
  effect on cell doubling time compared to phosphate buffered saline: negligable effects on cell doubling time

## CCCCCCCCCCCCCCN1C(=CC=Cc2oc3ccccc3[n+]2CCCCCCCCCCCCCC)Oc2ccccc21 [DiOC14 (3)]
V79 cells [1]
  Effect on cell viability, Propidium Iodide exclusion: absence of effect on cell viability
  Effect on cell viability, Trypan Blue Exclusion: absence of effect on cell viability
V79 cells [2]
  Cell doubling time of stained cells: unaffected

## CCCCCCCCCCCCCCN1C(=CC=CC=Cc2sc3ccccc3[n+]2CCCCCCCCCCCCCC)Sc2ccccc21 [DiSC14 (5)]
Rabbit red cells
  effect on clearance rate of red blood cells: did not affect the clearance rate of red blood cells
  lifetime of labelled red cells in circulation: 52 days

## O=S(=O)(O)CCCN1CCN(CCO)CC1 [EPPS, N--(2-Hydroxyethyl)piperazine-N'--3-propanesulfonic acid]
Yac cells
  effect on cell doubling time compared to phosphate buffered saline: negligable effects on cell doubling time

## O=C[C@H](O)[C@@H](O)[C@H](O)[C@H](O)CO [Glucose]
Yac cells
  effect on cell doubling time compared to phosphate buffered saline: negligable effects on cell doubling time

## O=S(=O)(O)CC(O)CN1CCN(CCO)CC1 (stereo not drawn) [HEPPSO, N--2-hydroxyethylpiperazine-N'--2-hydroxypropane-sulfonic acid]
Yac cells
  effect on cell doubling time compared to phosphate buffered saline: negligable effects on cell doubling time

## OC[C@H]1O[C@@](CO)(O[C@H]2O[C@H](CO)[C@@H](O)[C@H](O)[C@H]2O)[C@@H](O)[C@@H]1O [Sucrose]
Yac cells
  Doubling Time: 41.0 h
  effect on cell doubling time compared to phosphate buffered saline: negligable effects on cell doubling time

## O=S(=O)(O)CCCNC(CO)(CO)CO [TAPS, Tris(hydroxymethyl)-methylaminopropane sulfonic acid]
Yac cells
  effect on cell doubling time compared to phosphate buffered saline: negligable effects on cell doubling time

## CCCCN1C(=O)C(=CC=CC=C2Oc3ccccc3N2CCCS(=O)(=O)O)C(=O)N(CCCC)C1=S [merocyanine 540]
cells
  cytotoxicity: cytotoxic when the cell is exposed to light

## Phosphate Buffered Saline
Yac cells
  Doubling Time: 31.0 h
